Earlier results, collected in patent US20190275102A1, “STERILE INJECTABLE COMPOSITION COMPRISING CARFILZOMIB” (CADILA HEALTHCARE LIMITED, priority 2018, published 2019).

| Molecule | solubility in acidic conditions (acidic conditions) | solubility in water (water) | single dose showing renal tolerance (kidney; animal trials, single-dose studies, i.v.) | dose with evidence of renal cellular toxicity (kidney; in vivo) [mg/kg/day] | renal function (kidney; in vivo) |
| --- | --- | --- | --- | --- | --- |
| CC(C)C[C@H](NC(=O)[C@H](CCc1ccccc1)NC(=O)CN1CCOCC1)C(=O)N[C@@H](Cc1ccccc1)C(=O)N[C@@H](CC(C)C)C(=O)[C@@]1(C)CO1 [Carfilzomib, (2S)—N—((S)-1-((S)-4-methyl-1-((R)-2-methytoxiran2-yl)-1-oxopentan-2-ylcarbamoyl)-2-phenylethyl)-2-((S)-2-(2-morpholinoacetamido)-4-phenylbutanamido)-4-methylpentanamide] | very slightly soluble | practically insoluble |  |  |  |
| sulfobutylether beta-cyclodextrin |  |  | up to 2000 mg/kg | ≥ 160 | not impaired |
